Data from paper PMC10584170, “Machine learning-based phenotypic imaging to characterise the targetable biology of Plasmodium falciparum male gametocytes for the development of transmission-blocking antimalarials” (PLOS Pathogens, 2023).
pIC50: −log10 of the molar value. Where two headings read alike, the source gives them in different places.

Legend:
HepG2 cells = assay: HepG2 cytotoxicity counter-screen; details: cytotoxic activity against HepG2 cells
[1] = test system: P. falciparum female gametocytes; assay: P. falciparum Dual Gamete Formation Assay (PfDGFA), female readout (Pfs25-positive female gametes); type: cell-based, Plasmodium falciparum NF54; details: for Selectivity ratio F: HepG2 Tox50 versus female IC50; for Average inhibition female (%) / % inhibition female (individual replicates) R1 / % inhibition female (individual replicates) R3 / % inhibition female (individual replicates) R4 / inhibition at 2 µM: 24h preincubation with gametocytes; for pIC50: PfDGFA, 24 h incubation with gametocytes before induction, female gamete readout, read-out: Female IC50; for HitlevelF: number of replicates with >50% inhibition in the female readout
In short: (§1)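 NF54 mature gametocytes (d14), cpd 24 h 37°C hypoxic gas; trigger: xanthurenic acid ookinete medium + Cy3 anti-Pfs25, 4°C 4 min → 28°C 4 min. Male: exflagellation centres, brightfield x6. Female: Pfs25+ gametes, fluorescence, +24 h 28°C dark.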

[2] = test system: P. falciparum male gametocytes; assay: P. falciparum Dual Gamete Formation Assay (PfDGFA), male readout (exflagellation); type: cell-based, Plasmodium falciparum NF54; details: for Selectivity Ratio M: HepG2 Tox50 versus male IC50; for Average inhibition male (%) / % inhibition male (individual replicates) R1 / % inhibition male (individual replicates) R3 / % inhibition male (individual replicates) R4 / inhibition at 2 µM: 24h preincubation with gametocytes; for pIC50: PfDGFA, 24 h incubation with gametocytes before induction, exflagellation readout, read-out: Male IC50; for HitlevelM: number of replicates with >50% inhibition in the male readout
In short: as §1

[3] = PfDGFA at 2µM, average of replicates
[4] = Plasmodium falciparum, 2µM, average of replicates, read-out: Average inhibition female (%)
[5] = Plasmodium falciparum, 2µM, replicate R1, read-out: % inhibition female (individual replicates) R1
[6] = Plasmodium falciparum, 2µM, replicate R2, read-out: % inhibition female (individual replicates) R2
[7] = Plasmodium falciparum, 2µM, replicate R3, read-out: % inhibition female (individual replicates) R3
[8] = Plasmodium falciparum, 2µM, replicate R4, read-out: % inhibition female (individual replicates) R4
[9] = Plasmodium falciparum, 2µM, average of replicates, read-out: Average inhibition male (%)
[10] = Plasmodium falciparum, 2µM, replicate R1, read-out: % inhibition male (individual replicates) R1
[11] = Plasmodium falciparum, 2µM, replicate R2, read-out: % inhibition male (individual replicates) R2
[12] = Plasmodium falciparum, 2µM, replicate R3, read-out: % inhibition male (individual replicates) R3
[13] = Plasmodium falciparum, 2µM, replicate R4, read-out: % inhibition male (individual replicates) R4
[14] = Plasmodium falciparum, PfDGFA at 2µM, average of replicates, read-out: Average inhibition female (%)
[15] = Plasmodium falciparum, PfDGFA at 2µM, replicate R1, read-out: % inhibition female (individual replicates) R1
[16] = Plasmodium falciparum, PfDGFA at 2µM, replicate R2, read-out: % inhibition female (individual replicates) R2
[17] = Plasmodium falciparum, PfDGFA at 2µM, replicate R3, read-out: % inhibition female (individual replicates) R3
[18] = Plasmodium falciparum, PfDGFA at 2µM, replicate R4, read-out: % inhibition female (individual replicates) R4
[19] = Plasmodium falciparum, PfDGFA at 2µM, average of replicates, read-out: Average inhibition male (%)
[20] = Plasmodium falciparum, PfDGFA at 2µM, replicate R1, read-out: % inhibition male (individual replicates) R1
[21] = Plasmodium falciparum, PfDGFA at 2µM, replicate R2, read-out: % inhibition male (individual replicates) R2
[22] = Plasmodium falciparum, PfDGFA at 2µM, replicate R3, read-out: % inhibition male (individual replicates) R3
[23] = Plasmodium falciparum, PfDGFA at 2µM, replicate R4, read-out: % inhibition male (individual replicates) R4

pIC50 ([1]; Plasmodium falciparum)	pIC50 ([2]; Plasmodium falciparum)	Compound	Tox50 (HepG2 cells) [µM]	Selectivity ratio F [1]	HitlevelF ([1]; 2µM)	Selectivity Ratio M [2]	HitlevelM ([2]; 2µM)	inhibition at 2 µM [1, 4] [%]	inhibition at 2 µM [1, 5] [%]	inhibition at 2 µM [1, 6] [%]	inhibition at 2 µM [1, 7] [%]	inhibition at 2 µM [1, 8] [%]	inhibition at 2 µM [2, 9] [%]	inhibition at 2 µM [2, 10] [%]	inhibition at 2 µM [2, 11] [%]	inhibition at 2 µM [2, 12] [%]	inhibition at 2 µM [2, 13] [%]	other results
5.13	7.40	Cc1cc(Nc2ncc(C#N)c(Nc3ccccc3C(N)=O)n2)ccc1N1CCN(C)CC1.Cl [TCMDC-134115]	1.03	0.14	–	28.49	–	-14.3	-7.3	-13.1	-26.9	-10	96.2	97.3	97.1	88.6	102	–
< 5.00	7.00	COc1ccc(Nc2ncc(C#N)c(Nc3ccccc3C(N)=O)n2)cc1N1CCN(C)CC1.Cl [TCMDC-134117]	9.58	0.96	–	100.74	–	-4.3	-4.1	-6.5	-13.1	6.5	97.4	98.2	100	93.5	98	–
< 5.00	6.60	CNC(=O)c1ccccc1Nc1nc(Nc2ccc(N3CCN(C)CC3)nc2)ncc1C.Cl [TCMDC-134123]	3.44	0.34	–	14.02	–	0.025	-2.2	-9.9	9.7	2.5	96.1	93.9	95.8	–	98.7	–
< 5.00	6.74	CNC(=O)c1ccccc1Nc1nc(Nc2ccc(N3CCOCC3)cc2)ncc1Cl.Cl [TCMDC-134144]	0.82	0.08	0	4.53	4	–	–	–	–	–	–	–	–	–	–	inhibition at 2 µM [1, 14]: 8.6%; inhibition at 2 µM [1, 15]: 12.4%; inhibition at 2 µM [1, 16]: 10.5%; inhibition at 2 µM [1, 17]: 10.7%; inhibition at 2 µM [1, 18]: 0.76%; inhibition at 2 µM [2, 19]: 88.6%; inhibition at 2 µM [2, 20]: 93.6%; inhibition at 2 µM [2, 21]: 91.9%; inhibition at 2 µM [2, 22]: 82.6%; inhibition at 2 µM [2, 23]: 86.2%

Further lines, the molecule ahead of its results:

Compound	pIC50 ([1]; Plasmodium falciparum)	pIC50 ([2]; Plasmodium falciparum)	Tox50 (HepG2 cells) [µM]	Selectivity ratio F [1]	HitlevelF ([1]; 2µM)	Selectivity Ratio M [2]	HitlevelM ([2]; 2µM)	inhibition at 2 µM [1, 4] [%]	inhibition at 2 µM [1, 5] [%]	inhibition at 2 µM [1, 6] [%]	inhibition at 2 µM [1, 7] [%]	inhibition at 2 µM [1, 8] [%]	inhibition at 2 µM [2, 9] [%]	inhibition at 2 µM [2, 10] [%]	inhibition at 2 µM [2, 11] [%]	inhibition at 2 µM [2, 12] [%]	inhibition at 2 µM [2, 13] [%]	other results
CN1CCC(N2CCN(Cc3cccc(-c4ccc(-c5nc6cc(C(F)(F)F)ccc6[nH]5)cc4)c3)CC2)CC1.O=C(O)C(F)(F)F [TCMDC-133842]	–	–	5.34	1.63	1	3.46	4	–	–	–	–	–	–	–	–	–	–	Average inhibition female (%) [1, 3]: 30.2%; % inhibition female (individual replicates) R1 ([1]; PfDGFA at 2µM, replicate R1): 16.8%; % inhibition female (individual replicates) R3 ([1]; PfDGFA at 2µM, replicate R3): 18.6%; % inhibition female (individual replicates) R4 ([1]; PfDGFA at 2µM, replicate R4): 31.1%; pIC50 [1]: 5.49; Average inhibition male (%) [2, 3]: 86.6%; % inhibition male (individual replicates) R1 ([2]; PfDGFA at 2µM, replicate R1): 86.4%; % inhibition male (individual replicates) R3 ([2]; PfDGFA at 2µM, replicate R3): 71.8%; % inhibition male (individual replicates) R4 ([2]; PfDGFA at 2µM, replicate R4): 92.9%; pIC50 [2]: 5.81
Fc1ccc2[nH]c(-c3ccc(-c4ccc(CN5CCC(CCN6CCCCC6)CC5)cc4)s3)nc2c1.O=C(O)C(F)(F)F [TCMDC-133932]	–	–	4.83	1.07	1	3.55	4	–	–	–	–	–	–	–	–	–	–	Average inhibition female (%) [1, 3]: 38.7%; % inhibition female (individual replicates) R1 ([1]; PfDGFA at 2µM, replicate R1): 37.3%; % inhibition female (individual replicates) R3 ([1]; PfDGFA at 2µM, replicate R3): 32.0%; % inhibition female (individual replicates) R4 ([1]; PfDGFA at 2µM, replicate R4): 25.9%; pIC50 [1]: 5.35; Average inhibition male (%) [2, 3]: 85.6%; % inhibition male (individual replicates) R1 ([2]; PfDGFA at 2µM, replicate R1): 90.7%; % inhibition male (individual replicates) R3 ([2]; PfDGFA at 2µM, replicate R3): 68.9%; % inhibition male (individual replicates) R4 ([2]; PfDGFA at 2µM, replicate R4): 86.9%; pIC50 [2]: 5.87
Cl.NC(=O)c1ccccc1Nc1nc(Nc2cccc(N3CCN(CCO)CC3)c2)ncc1Cl [TCMDC-134114]	< 5.00	6.33	13.07	1.31	–	28.08	–	4.2	11.2	7.4	-5	3.4	96.1	97.9	97.4	96.2	92.9	–
CN1CCN(c2ccc(Nc3ncc(C#N)c(Nc4ccccc4C(N)=O)n3)cc2)CC1.Cl [TCMDC-134116]	5.04	7.52	3.71	0.4	–	137.11	–	-1.7	7.5	3	-11.3	-6.1	100	98.7	101	97.3	104	–
CN1CCC(NCc2ccc(-c3cnc(NCc4ccccc4)nc3)cc2)CC1.O=C(O)C(F)(F)F [TCMDC-134120]	5.18	6.02	11.1	1.69	1	11.62	4	–	–	–	–	–	–	–	–	–	–	inhibition at 2 µM [1, 14]: 24.9%; inhibition at 2 µM [1, 15]: 24.7%; inhibition at 2 µM [1, 16]: 16.8%; inhibition at 2 µM [1, 17]: -0.09%; inhibition at 2 µM [1, 18]: 58.4%; inhibition at 2 µM [2, 19]: 86.5%; inhibition at 2 µM [2, 20]: 83.5%; inhibition at 2 µM [2, 21]: 87.5%; inhibition at 2 µM [2, 22]: 86.1%; inhibition at 2 µM [2, 23]: 88.9%
